{"source": "patent US20050042271A1", "about": "“Transdermal delivery system for alkaloids of aconitum species” (priority 1999, published 2005)", "origin": "cited, not measured here", "key": {"[1]": {"conditions": "all layers of epidermis and dermis; irreversible damage, scarring"}}}
{"molecule": "CCN1C[C@@]2(COC)[C@H]3[C@@H](OC)[C@H]4[C@@H]1[C@]3([C@@H](OC)C[C@H]2OC(C)=O)[C@@H]1C[C@@]2(O)[C@H](OC(=O)c3ccccc3)[C@@H]1[C@]4(OC(C)=O)[C@@H](O)[C@@H]2OC", "note": "[3-acetylaconitine]", "values": [{"measurement": "affinity for opioid receptors", "setting": "opioid receptors", "value": "without affinity for opioid receptors"}]}
{"molecule": "CCCCCCCCCCCCN1CCCCCC1=O", "note": "[Azone, laurocapram]", "values": [{"measurement": "skin irritation", "setting": "[1]", "value": "severe skin irritation"}]}
{"molecule": "CCN1C[C@]2(OC(=O)c3ccccc3NC(C)=O)CC[C@H](OC)[C@@]34[C@@H]2C[C@@H]([C@@H]13)[C@@]1(O)C[C@H](OC)[C@H]2C[C@@H]4[C@]1(O)[C@H]2OC", "note": "[lappaconitine]", "values": [{"measurement": "affinity for opioid receptors", "setting": "opioid receptors", "value": "without affinity for opioid receptors"}]}
{"molecule": "bulleyaconitine A", "values": [{"measurement": "affinity for opioid receptors", "setting": "opioid receptors", "value": "without affinity for opioid receptors"}]}
